In patent publication US7928187B2, “Neuropeptide alarin” (Austria Wirtschaftsservice Gesellschaft mit beschrankter …, priority 2005, dated 2011):
Ends that are not written are not given here.

Experiments:
[1] = tested on: CNS; assay: Functional assays in the CNS with murine alarin peptides; type: in vivo, mice (C57Bl/6); conditions: amidated synthetic murine peptides 1-25 and 3-25
Description: (§1) Intact adult male mice (C57Bl/6) were treated by a single injection into the lateral ventricles with either artificial cerebrospinal fluid (aCSF), alarin 1-25 (A1), alarin 3-25 (A3). Each treatment was given in an equimolar dose of 5 nmol. Body weight and food weight were measured at 1 hr, 2 hr, and 24 hr post injection. (Shown here as percent change in body weight from baseline).
as §1, with “grams of food consumed).” for “percent change in body weight from baseline).”
(§2) Intact adult male mice (C57Bl/6) were treated by a single injection into the lateral ventricles with either artificial cerebrospinal fluid (aCSF), alarin 1-25 (A1), alarin 3-25 (A3). Each treatment was given in an equimolar dose of 5 nmol. Blood was collected 30 min after injection and serum was assayed for LH content. (LH levels shown here in ng/ml).

[2] = tested on: CD-1 mouse skin; assay: Inflammatory oedema formation (plasma extravasation) in mouse dorsal skin; type: in vivo
Description: Experiments involving mice were carried out under the Animals (Scientific Procedures) Act, 1986. Normal female CD-1 mice (22-27 g, 8-12 weeks) were obtained from Charles River, U.K. All mice were maintained on normal diet, with free access to food and water, in a climatically controlled environment. Animals were anaesthetized with urethane (25% w v-1; 2.5 g kg-1 i.p.) and the dorsal skin was shaved. Injection sites were chosen according to a randomized site pattern on the dorsal skin of the anaesthetized mouse. Agents were from Sigma, Poole, U.K., unless specified. Alarin (1-25)-amide (murine) alarin (3-32)-amide (murine) were custom synthesized by NeoMPS Inc. (Strasbourg, France). All peptides were dissolved in distilled water. The stock solutions (10 nM) were stored at −20° C. and further diluted in Tyrode's solution (137 mM NaCl, 2.7 mM KCl, 0.5 mM MgCl2, 0.4 mM NaH2PO4, 11.9 mM NaHCO3, 5.6 mM glucose) just prior use.
Plasma extravasation was used as an index of inflammatory oedema formation and measured as previously described (Cao et al, 1999). Briefly, test agents were diluted in Tyrode's solution and stored on ice. […] The amount of plasma extravasated (μl g-1 tissue) was calculated by comparing the amount of radioactivity in each skin site with that in 100 μl plasma from the same animal.

[3] = tested on: galanin receptors; assay: Microphysiometry on galanin receptor expressing cells, receptor activation; type: cell-based, human; conditions: binding assays and microphysiometry on galanin receptor expressing cells
Description: After reaching confluency the cells are harvested and seeded into 3.0 μm pore transwells (Corning Costar) held in 12 well plates one day before the experiment. The cells are allowed to settle down in the culture medium and cultured overnight in serum-free growth-medium. The ECAR of cells is determined by using a Cytosensor Microphysiometer (Molecular Devices). A capsule spacer and a capsule insert are assembled in the transwells, transferred into a sensor chamber and kept in DMEM without sodium bicarbonate throughout the entire experiment at 37° C. The running medium is pumped through each sensor chamber at 50 μl min^−1. A typical pumping cycle of 120 s consists of a flow period of 90 s, followed by a flow-off period of 30 s. During flow-off periods, protons released from the cells accumulate in the sensor chamber, and the rate of proton release is quantified by fitting the sensor data to a straight line with the least-squares fit to the slope of the pH profile. Agonists or other agents are diluted into running medium and perfused through a second fluid path. […]
SH-SY5Y/GalR1 and SH-SY5Y/GalR2 cells (Berger 2004) were seeded into 3.0-μM pore size Transwells (Corning Costar, Cambridge, Mass., USA). The extracellular acidification rate was determined using a cytosensor microphysiometer (Molecular Devices, Ismanning, Germany) as previously reported (Lang et al., 2001).

[4] = molecular target: T1, GALR2 receptor (Homo sapiens, UniProt O43603); assay: Microphysiometry, extracellular acidification rate, SY5Y cells expressing GALR2; type: cell-based; conditions: human neuroblastoma cells SY5Y expressing GALR2; alarin 100 nM
T1 construct: expressed in transfected cells; host or cells: SH-SY5Y human neuroblastoma cells
T1 sequence (O43603 1-387): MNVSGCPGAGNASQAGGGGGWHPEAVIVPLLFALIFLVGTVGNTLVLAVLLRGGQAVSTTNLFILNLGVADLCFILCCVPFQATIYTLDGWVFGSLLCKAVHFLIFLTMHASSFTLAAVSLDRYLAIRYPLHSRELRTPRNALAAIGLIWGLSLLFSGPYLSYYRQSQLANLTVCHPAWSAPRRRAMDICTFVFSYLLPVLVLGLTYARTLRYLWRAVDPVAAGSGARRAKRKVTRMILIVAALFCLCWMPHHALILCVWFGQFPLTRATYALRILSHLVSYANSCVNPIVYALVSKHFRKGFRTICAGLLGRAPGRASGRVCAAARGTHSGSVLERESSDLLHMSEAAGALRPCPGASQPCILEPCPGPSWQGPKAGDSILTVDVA

[5] = tested on: galanin receptors; assay: Receptor binding assay, displacement of radiolabeled GAL from membrane preparations; conditions: binding assays and functional microphysiometry, 50 pM [125I]GAL
Description: Membrane preparations and radioligand binding assays were performed according to Berger et al. (Berger et al., 2002). Displacement of radiolabeled GAL binding to membrane preparations (15 μg) was carried out in duplicates in a total volume of 120 μl of binding buffer containing 50 pM [125I]GAL (2,000 Ci/mmol; Amersham Pharmacia Biotech (Little Chalfont, UK) and different concentrations of synthetic murine alarin (1-25-amide) and alarin (3-25-amide).

[6] = Food intake after injection into the lateral ventricles; type: in vivo, mice (C57Bl/6); conditions: 5 nmol, single injection into lateral ventricles, one hour after injection, adult male mice
Description: as §1, with “grams of food consumed).” for “percent change in body weight from baseline).”

[7] = Luteinising hormone (LH) level after injection into the lateral ventricles; type: in vivo, mice (C57Bl/6); conditions: 5 nmol, single injection into lateral ventricles, blood collected 30 min after injection, adult male mice
Description: as §2

[8] = Body weight after injection into the lateral ventricles; type: in vivo, mice (C57Bl/6); conditions: 5 nmol, single injection into lateral ventricles, one hour after injection, adult male mice
Description: as §1

Row | Substance | activity in the CNS [1] | potency in inhibition of oedema formation in the skin, alarin 1-25 compared with alarin 3-25 ([2]; amidated synthetic murine peptides) | inhibition of inflammatory oedema ([2]; co-injection with substance P (300 pmol) and CGRP (10 pmol), intradermal, murine dorsal skin) | activation of galanin receptors [3] | change in extracellular acidification [4] | binding to galanin receptors [5] | food intake [6] | plasma LH levels [7] | body weight [8]
1 | Alarin 1-25: amidated synthetic murine alarin peptide 1-25 (APAHRSSPFPPRPTRAGRETQLLRS-NH2) | only alarin 3-25 was active in the CNS | more potent |  |  |  |  |  |  | 
2 | APAHRSSTFPKWVTKTERGRQPLRS (listed as Homo sapiens) [alarin, novel neuropeptide, splice variant of GALP mRNA] |  |  | inhibition of inflammatory oedema | not able to activate these receptors | No change | can be excluded |  |  | 
3 | Alarin 3-25: amidated synthetic murine alarin peptide 3-25 (AHRSSPFPPRPTRAGRETQLLRS-NH2) | active |  |  |  |  |  | significant decrease | significant increase | significant reduction
